≈ marks a conversion by molar mass, not a printed value. Entries after “also recorded” stand apart in the source; their conditions may differ.
Columns and labels:
Assay type in all cases: cell-based
[1] = tested on: C. albicans 742 (erg11ΔΔ/erg3ΔΔ mutant C. albicans strain); assay: MIC80 broth double-dilution assay, strain lacking CYP51; details: 24 h; for MIC80: Candida albicans, read-out: MIC80 against C. albicans 742; for MIC80 against C. albicans 742: YPAD medium, 30° C., erg11ΔΔ/erg3ΔΔ mutant lacking CYP51
In short: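 Double-knockout C. albicans and parent SN152 grown in YPAD at 30 °C with serial double dilutions from 64 to 0.003 μg/mL; OD600 read after 24 h (growth followed over 48 h). MIC80 taken as >80% OD600 reduction versus no-drug wells; triplicate, two independent experiments.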

C. albicans ATCC 24433 = assay: MIC80 broth double-dilution assay; details: YPAD medium, 30° C., 24 h; for MIC80: Candida albicans, ATCC24433, read-out: MIC80 against C. albicans 24433
In short: (§1)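 Broth microdilution per CLSI M27-A3 with minor modifications: serial double dilutions of hybrids (64 to 0.003 μg/mL) in YPAD, inoculum from PBS suspension at 1×10^−3 OD600 diluted 1:100. Growth 24 h at 30° C; MIC80 = concentration reducing OD600 by >80% versus no-drug wells.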

C. albicans ATCC 90028 = assay: MIC80 broth double-dilution assay; details: YPAD medium, 30° C., 24 h; for MIC80: Candida albicans, ATCC90028, read-out: MIC80 against C. albicans 90028
In short: as §1

C. albicans P-87 = assay: MIC80 broth double-dilution assay; details: YPAD medium, 30° C., 24 h; for MIC80: Candida albicans, P87, read-out: MIC80 against C. albicans P-87
In short: as §1

C. albicans SC5314 = assay: MIC80 broth double-dilution assay; details: YPAD medium, 30° C., 24 h; for MIC80: Candida albicans, SC5314, read-out: MIC80 against C. albicans SC5314
In short: as §1

C. dubliniensis T-99 = assay: MIC80 broth double-dilution assay; details: YPAD medium, 30° C., 24 h; for MIC80: Candida dubliniensis, T99, read-out: MIC80 against C. dubliniensis T-99
In short: as §1

[2] = tested on: C. parapsilosis ATCC 22019; assay: MIC80 broth double-dilution assay; details: YPAD medium, 30° C., 24 h; for MIC80: Lodderomyces parapsilosis, ATCC22019, read-out: MIC80 against C. parapsilosis 22019
In short: as §1

C. tropicalis 660 [3] = assay: MIC80 broth double-dilution assay; details: YPAD medium, 30° C., 24 h; for MIC80: Candida tropicalis, 660, read-out: MIC80 against C. tropicalis 660
In short: as §1

C. albicans SN152 = assay: Disk diffusion assay for antifungal tolerance; details: casitone agar, disk with 25 μg, 30° C.
Description: (§2) To investigate how tolerance is affected by the azole-COX inhibitor hybrids, a comparison of hybrids 1 and 5 to FLC and VOR in a disk diffusion assay was performed. Tolerance was evaluated by comparing the zone of inhibition after 24 h to that after 48 h. The assay was carried out on three representative strains: C. albicans, C. parapsilosis, and C. tropicalis (FIG. 7).
(§3) As shown, compared to FLC and VOR, azole-COX inhibitor hybrids 1 and 5 display reduced antifungal tolerance. Disk diffusion assays were carried out on casitone agar plates containing disks loaded with 25 μg of the tested hybrids. Plates were imaged after 24 h to evaluate antifungal activity (left half of the plate image) and after 48 h to evaluate tolerance (right half of the plate image).
(§4) Disk diffusion assay: Antifungal activities of select hybrids against C. albicans SN152, C. parapsilosis ATCC 22019, and C. tropicalis 660 were confirmed by the disk diffusion assay. Strains were streaked from frozen culture onto YPAD agar and incubated for 24 h at 30° C. Two or three colonies were placed into 1 mL of PBS solution, and OD600 was determined with a TECAN Infinite. OD600 was adjusted to 0.02 for C. albicans SN152 and to 0.025 for C. parapsilosis ATCC 22019 and C. tropicalis 660 by dilution with PBS. Aliquots of 200 μL of the diluted cultures of each strain were plated onto 15-mL casitone agar plates and spread using sterile beads (3 mm, Fisher Scientific). After the plates dried, a single disk (6-mm diameter, Becton Dickinson) with 25 μg of the hybrid being tested was placed in the center of each plate. Plates were then incubated at 30° C. and photographed under the same imaging conditions after 24 h and 48 h. FLC and VOR were used as control drugs.

[4] = tested on: C. parapsilosis ATCC 22019; assay: Disk diffusion assay for antifungal tolerance; details: casitone agar, disk with 25 μg, 30° C.
Description: as §2, §3, §4

C. tropicalis 660 [5] = assay: Disk diffusion assay for antifungal tolerance; details: casitone agar, disk with 25 μg, 30° C.
Description: as §2, §3, §4

Structure (SMILES) | MIC80 [1] [µg/mL] | MIC80 against C. albicans 742 [1] | MIC80 (C. albicans ATCC 24433) [µg/mL] | MIC80 (C. albicans ATCC 90028) [µg/mL] | MIC80 (C. albicans P-87) [µg/mL] | MIC80 (C. albicans SC5314) [µg/mL] | MIC80 (C. dubliniensis T-99) [µg/mL] | MIC80 [2] [µg/mL] | MIC80 (C. tropicalis 660 [3]) [µg/mL] | Tolerance: zone of inhibition after 48 h compared with 24 h (C. albicans SN152) | Tolerance: zone of inhibition after 48 h compared with 24 h [4] | Tolerance: zone of inhibition after 48 h compared with 24 h (C. tropicalis 660 [5]) | MIC80 against C. albicans 24433 (C. albicans ATCC 24433) [µg/mL] | MIC80 against C. albicans 90028 (C. albicans ATCC 90028) [µg/mL] | MIC80 against C. albicans P-87 (C. albicans P-87) [µg/mL] | MIC80 against C. albicans SC5314 (C. albicans SC5314) [µg/mL] | MIC80 against C. dubliniensis T-99 (C. dubliniensis T-99) [µg/mL] | MIC80 against C. parapsilosis 22019 [2] [µg/mL] | MIC80 against C. tropicalis 660 (C. tropicalis 660 [3]) [µg/mL]
C[C@@H](c1ncncc1F)[C@](O)(Cn1cncn1)c1ccc(F)cc1F [VOR, voriconazole, reference compound] | > 64 | inactive | 0.015 (≈ 0.0429 µM) | 0.007 (≈ 0.02 µM) | 0.007 (≈ 0.02 µM) | 0.007 (≈ 0.02 µM) | 0.03 (≈ 0.0859 µM) | 0.015 (≈ 0.0429 µM) | 0.12 (≈ 0.344 µM) | covered by drug tolerant colonies | covered by drug tolerant colonies | the drug tolerant subpopulation was smaller | – | – | – | – | – | – | –
CC(C)Cc1ccc([C@H](C)C(=O)NC[C@](O)(Cn2cncn2)c2ccc(F)cc2F)cc1 [Hybrid 1] | – | 64 µg/mL (≈ 145 µM) | – | – | – | – | – | – | – | reduced tolerance | reduced tolerance | reduced tolerance | 0.007 (≈ 0.0158 µM) | 0.003 (≈ 0.00678 µM) | 0.003 (≈ 0.00678 µM) | 0.003 (≈ 0.00678 µM) | 0.06 (≈ 0.136 µM) | 0.007 (≈ 0.0158 µM) | 0.03 (≈ 0.0678 µM)
OC(Cn1cncn1)(Cn1cncn1)c1ccc(F)cc1F [FLC, fluconazole] | > 64 | inactive | 1 (≈ 3.27 µM) | 0.5 (≈ 1.63 µM) | 1 (≈ 3.27 µM) | 0.5 (≈ 1.63 µM) | 0.25 (≈ 0.816 µM) | 1 (≈ 3.27 µM) | 1 (≈ 3.27 µM) | covered by drug tolerant colonies | covered by drug tolerant colonies | the drug tolerant subpopulation was smaller | – | – | – | – | – | – | –
C[C@H](C(=O)NC[C@](O)(Cn1cncn1)c1ccc(F)cc1F)c1ccc(-c2ccccc2)c(F)c1 [Hybrid 5] | – | 64 µg/mL (≈ 133 µM) | – | – | – | – | – | – | – | reduced tolerance | reduced tolerance; also recorded: markedly lower than that to VOR | reduced tolerance | 0.03 (≈ 0.0624 µM) | 0.015 (≈ 0.0312 µM) | 0.015 (≈ 0.0312 µM) | 0.007 (≈ 0.0146 µM) | 0.5 (≈ 1.04 µM) | – | 0.06 (≈ 0.125 µM)
